From patent publication US20230373985A1 (Origenis Gmbh, priority 2020, published 2023)

What was measured:
[1] = target: T1, G2019S human LRRK2, catalytic site (Homo sapiens, UniProt Q5S007, G2019S); assay: TR-FRET LanthaScreen Eu Kinase Binding Assay, LRRK2 G2019S; conditions: LRRK2(G2019); one range stated for wt and G2019; read-out: IC50, Activity Toward LRRK2(G2019)
T1 construct: G2019S human LRRK2, catalytic site; purchased ThermoFisher
Outline: (§1)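 Emission ratios from TR-FRET were analysed per the LanthaScreen binding protocol after 1 h room-temperature incubation of compound, kinase/antibody and Kinase Tracer 236. Final levels were 5 nM LRRK2 with 2 nM Eu-anti-GST and 10 nM tracer, or 8 nM NUAK1 with 2 nM Eu-anti-His and 5 nM tracer.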

[2] = target: T2, wt human LRRK2, catalytic site (Homo sapiens, UniProt Q5S007); assay: TR-FRET LanthaScreen Eu Kinase Binding Assay, LRRK2 wt; conditions: one range stated for wt and G2019, read-out: IC50, Activity Toward LRRK2(Wt)
T2 construct: 5 nM wt human LRRK2, catalytic site; purchased ThermoFisher
T2 sequence (Q5S007 970-2527 limits assumed): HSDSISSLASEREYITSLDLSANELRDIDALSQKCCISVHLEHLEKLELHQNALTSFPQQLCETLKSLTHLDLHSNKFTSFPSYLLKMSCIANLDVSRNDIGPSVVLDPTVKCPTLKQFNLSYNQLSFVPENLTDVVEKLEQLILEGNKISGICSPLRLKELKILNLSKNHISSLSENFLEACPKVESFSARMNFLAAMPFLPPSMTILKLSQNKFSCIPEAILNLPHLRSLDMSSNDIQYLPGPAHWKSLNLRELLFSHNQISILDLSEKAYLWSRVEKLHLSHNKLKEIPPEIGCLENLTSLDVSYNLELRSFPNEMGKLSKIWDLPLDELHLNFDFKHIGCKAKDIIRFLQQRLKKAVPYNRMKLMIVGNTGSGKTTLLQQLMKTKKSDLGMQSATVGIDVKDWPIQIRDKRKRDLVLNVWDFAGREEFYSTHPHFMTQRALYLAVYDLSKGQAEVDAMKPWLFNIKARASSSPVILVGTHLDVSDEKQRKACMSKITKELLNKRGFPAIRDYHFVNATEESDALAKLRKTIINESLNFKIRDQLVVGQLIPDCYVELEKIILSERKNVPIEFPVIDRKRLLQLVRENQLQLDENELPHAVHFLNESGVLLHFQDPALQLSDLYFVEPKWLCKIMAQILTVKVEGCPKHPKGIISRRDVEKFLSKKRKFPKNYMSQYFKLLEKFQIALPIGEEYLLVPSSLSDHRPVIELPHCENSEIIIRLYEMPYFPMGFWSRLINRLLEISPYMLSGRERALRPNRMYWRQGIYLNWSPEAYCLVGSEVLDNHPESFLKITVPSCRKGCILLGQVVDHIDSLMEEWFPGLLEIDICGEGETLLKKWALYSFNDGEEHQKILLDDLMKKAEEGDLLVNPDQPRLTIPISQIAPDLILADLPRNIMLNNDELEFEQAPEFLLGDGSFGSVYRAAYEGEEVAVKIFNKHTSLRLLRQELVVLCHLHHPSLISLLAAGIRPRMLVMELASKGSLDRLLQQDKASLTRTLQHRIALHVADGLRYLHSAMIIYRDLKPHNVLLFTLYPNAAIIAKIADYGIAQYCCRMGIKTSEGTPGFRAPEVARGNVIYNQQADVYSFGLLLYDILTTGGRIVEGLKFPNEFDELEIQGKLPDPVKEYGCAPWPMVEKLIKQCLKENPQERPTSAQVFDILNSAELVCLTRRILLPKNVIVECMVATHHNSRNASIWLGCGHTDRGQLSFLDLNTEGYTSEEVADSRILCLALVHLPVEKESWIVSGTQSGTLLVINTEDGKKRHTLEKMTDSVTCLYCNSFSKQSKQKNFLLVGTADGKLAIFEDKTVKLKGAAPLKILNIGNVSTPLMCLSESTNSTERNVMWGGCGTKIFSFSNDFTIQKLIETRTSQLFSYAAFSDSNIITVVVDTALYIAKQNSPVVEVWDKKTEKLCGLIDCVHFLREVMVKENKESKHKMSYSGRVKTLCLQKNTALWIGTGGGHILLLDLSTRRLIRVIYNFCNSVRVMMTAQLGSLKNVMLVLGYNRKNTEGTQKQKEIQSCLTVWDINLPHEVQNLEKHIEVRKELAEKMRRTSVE
Outline: as §1

[3] = target: T3, wt human TYK2, catalytic site (Homo sapiens, UniProt P29597); assay: HTRF KinEASE assay, TYK2; type: biochemical; conditions: 1 μM ATP; read-out: IC50, Activity Toward TYK2
T3 construct: wt human TYK2, catalytic site; purchased SignalChem
T3 sequence (P29597 897-1176 limits assumed): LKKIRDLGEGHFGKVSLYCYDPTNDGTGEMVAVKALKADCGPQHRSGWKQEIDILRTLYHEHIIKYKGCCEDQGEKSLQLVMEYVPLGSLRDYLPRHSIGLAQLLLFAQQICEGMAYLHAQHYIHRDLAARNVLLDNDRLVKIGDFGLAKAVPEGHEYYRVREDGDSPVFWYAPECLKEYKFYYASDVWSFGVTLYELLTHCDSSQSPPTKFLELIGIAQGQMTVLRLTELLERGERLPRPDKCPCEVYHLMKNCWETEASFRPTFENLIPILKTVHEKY
Outline: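 HTRF KinEASE-TK readout with 1 μM biotinylated TK substrate in 1× kinase buffer, ≥30 min at room temperature, then antibody/streptavidin-XL665 detection for 60 min. TYK2 at 2 nM with 1 μM ATP; JAK2 at 1 nM with 100 μM ATP. Analysis uses emission ratios.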

[4] = target: T4, wt human JAK1, catalytic site (Homo sapiens, UniProt P23458); assay: HTRF KinEASE assay, JAK1; type: biochemical; conditions: 2.5 μM ATP; read-out: IC50, Activity Toward JAK1
T4 construct: wt human JAK1, catalytic site; purchased ThermoFisher
T4 sequence (P23458 875-1153 limits assumed): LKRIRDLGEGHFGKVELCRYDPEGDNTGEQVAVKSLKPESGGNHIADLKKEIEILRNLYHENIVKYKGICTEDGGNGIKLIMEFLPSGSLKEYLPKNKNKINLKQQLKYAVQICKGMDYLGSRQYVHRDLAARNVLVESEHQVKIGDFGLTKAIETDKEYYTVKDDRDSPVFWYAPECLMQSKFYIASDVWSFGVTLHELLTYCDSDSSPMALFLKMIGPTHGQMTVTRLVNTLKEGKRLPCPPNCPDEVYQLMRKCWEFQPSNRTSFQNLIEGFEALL
Outline: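 Two-step HTRF KinEASE assay: compound, kinase/biotinylated TK substrate and ATP were incubated at least 30 min at room temperature. Antibody plus streptavidin-XL665 was then added and plates were read after 60 min. Inhibition was derived from emission ratios according to the kit protocol.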

T1 sequence (Q5S007 970-2527 G2019S limits assumed): as the sequence (Q5S007 970-2527 limits assumed) above, with G1050S counted along it

## NC(=O)c1nn(-c2c(Cl)cccc2Cl)cc1Nc1ccc(C(=O)N2CC[C@H](F)C2)cc1 [compound 316, (S)-1-(2,6-dichlorophenyl)-4-((4-(3-fluoropyrrolidine-1-carbonyl)phenyl)amino)-1H-pyrazole-3-carboxamide]
[1]
  IC50: 100 to 1000 nM
[2]
  IC50: 100 to 1000 nM
[3]
  IC50: < 10 nM
[4]
  IC50: 10 to 100 nM

## NC(=O)c1nn(-c2c(Cl)cccc2Cl)cc1Nc1ccc(-c2ccnnc2)cc1 [compound 321, 1-(2,6-dichlorophenyl)-4-((4-(pyridazin-4-yl)phenyl)amino)-1H-pyrazole-3-carboxamide]
[1]
  IC50: 100 to 1000 nM
[2]
  IC50: 100 to 1000 nM
[3]
  IC50: 10 to 100 nM
[4]
  IC50: 10 to 100 nM

## Cc1ncnn1-c1ccc(Nc2cn(-c3c(Cl)cccc3Cl)nc2C(N)=O)cc1 [compound 326, 1-(2,6-dichlorophenyl)-4-((4-(5-methyl-1H-1,2,4-triazol-1-yl)phenyl)amino)-1H-pyrazole-3-carboxamide]
[1]
  IC50: 100 to 1000 nM
[2]
  IC50: 100 to 1000 nM
[3]
  IC50: 10 to 100 nM
[4]
  IC50: 10 to 100 nM

## NC(=O)c1nn(-c2c(Cl)cccc2Cl)cc1Nc1ccc(C(=O)N2CC[C@H](F)C2)nc1 [compound 355, (S)-1-(2,6-dichlorophenyl)-4-((6-(3-fluoropyrrolidine-1-carbonyl)pyridin-3-yl)amino)-1H-pyrazole-3-carboxamide]
[1]
  IC50: 100 to 1000 nM
[2]
  IC50: 100 to 1000 nM
[3]
  IC50: 10 to 100 nM
[4]
  IC50: 100 to 1000 nM

## Cc1cccc2nnc(-c3ccc(Nc4cn(-c5c(Cl)cccc5Cl)nc4C(N)=O)cc3)n12 [compound 376, 1-(2,6-dichlorophenyl)-4-((4-(5-methyl-[1,2,4]triazolo[4,3-a]pyridin-3-yl)phenyl)amino)-1H-pyrazole-3-carboxamide]
[1]
  IC50: 100 to 1000 nM
[2]
  IC50: 100 to 1000 nM
[3]
  IC50: 10 to 100 nM
[4]
  IC50: 10 to 100 nM

## NC(=O)c1nn(-c2c(Cl)cccc2Cl)cc1Nc1cnn(-c2ncccc2F)c1 [compound 386, 1-(2,6-dichlorophenyl)-4-((1-(3-fluoropyridin-2-yl)-1H-pyrazol-4-yl)amino)-1H-pyrazole-3-carboxamide]
[1]
  IC50: 100 to 1000 nM
[2]
  IC50: 100 to 1000 nM
[3]
  IC50: 10 to 100 nM
[4]
  IC50: 10 to 100 nM

## N#Cc1cn(CCO)c(-c2ccc(Nc3cn(-c4c(Cl)cccc4Cl)nc3C(N)=O)cn2)n1 [compound 387, 4-((6-(4-cyano-1-(2-hydroxyethyl)-1H-imidazol-2-yl)pyridin-3-yl)amino)-1-(2,6-dichlorophenyl)-1H-pyrazole-3-carboxamide]
[1]
  IC50: 100 to 1000 nM
[2]
  IC50: 100 to 1000 nM
[3]
  IC50: 10 to 100 nM
[4]
  IC50: 10 to 100 nM

## Cc1cccc2nnc(-c3ccc(Nc4cn(-c5c(Cl)cccc5Cl)nc4C(N)=O)cn3)n12 [compound 388, 1-(2,6-dichlorophenyl)-4-((6-(5-methyl-[1,2,4]triazolo[4,3-a]pyridin-3-yl)pyridin-3-yl)amino)-1H-pyrazole-3-carboxamide]
[1]
  IC50: 100 to 1000 nM
[2]
  IC50: 100 to 1000 nM
[3]
  IC50: 10 to 100 nM
[4]
  IC50: 10 to 100 nM

## Cc1cnnn1-c1ccc(Nc2cn(-c3c(Cl)cccc3Cl)nc2C(N)=O)cc1 [compound 391, 1-(2,6-dichlorophenyl)-4-((4-(5-methyl-1H-1,2,3-triazol-1-yl)phenyl)amino)-1H-pyrazole-3-carboxamide]
[1]
  IC50: 100 to 1000 nM
[2]
  IC50: 100 to 1000 nM
[3]
  IC50: 10 to 100 nM
[4]
  IC50: 10 to 100 nM

## Cc1ccncc1-c1ccc(Nc2cn(-c3c(Cl)cccc3Cl)nc2C(N)=O)cn1 [compound 394, 1-(2,6-dichlorophenyl)-4-((4′-methyl-[2,3′-bipyridin]-5-yl)amino)-1H-pyrazole-3-carboxamide]
[1]
  IC50: 100 to 1000 nM
[2]
  IC50: 100 to 1000 nM
[3]
  IC50: 100 to 1000 nM
[4]
  IC50: 100 to 1000 nM

## Cc1cccnc1-c1ccc(Nc2cn(-c3c(Cl)cccc3Cl)nc2C(N)=O)cn1 [compound 395, 1-(2,6-dichlorophenyl)-4-((3′-methyl-[2,2′-bipyridin]-5-yl)amino)-1H-pyrazole-3-carboxamide]
[1]
  IC50: 100 to 1000 nM
[2]
  IC50: 100 to 1000 nM
[3]
  IC50: 100 to 1000 nM
[4]
  IC50: 100 to 1000 nM

## CC(C)n1cnnc1-c1ccc(Nc2cn(-c3c(Cl)cccc3Cl)nc2C(N)=O)cn1 [compound 400, 1-(2,6-dichlorophenyl)-4-((6-(4-isopropyl-4H-1,2,4-triazol-3-yl)pyridin-3-yl)amino)-1H-pyrazole-3-carboxamide]
[1]
  IC50: 100 to 1000 nM
[2]
  IC50: 100 to 1000 nM
[3]
  IC50: 10 to 100 nM
[4]
  IC50: 100 to 1000 nM

## NC(=O)c1nn(-c2c(Cl)cccc2Cl)cc1Nc1ccc(-c2nncn2/C=C/F)cc1 [compound 415, (E)-1-(2,6-dichlorophenyl)-4-((4-(4-(2-fluorovinyl)-4H-1,2,4-triazol-3-yl)phenyl)amino)-1H-pyrazole-3-carboxamide]
[1]
  IC50: 100 to 1000 nM
[2]
  IC50: 100 to 1000 nM
[3]
  IC50: < 10 nM
[4]
  IC50: 10 to 100 nM

## CCn1cnnc1-c1ccc(Nc2cn(-c3c(Cl)ccc(F)c3Cl)nc2C(N)=O)cc1 [compound 418, 1-(2,6-dichloro-3-fluorophenyl)-4-((4-(4-ethyl-4H-1,2,4-triazol-3-yl)phenyl)amino)-1H-pyrazole-3-carboxamide]
[1]
  IC50: 100 to 1000 nM
[2]
  IC50: 100 to 1000 nM
[3]
  IC50: 10 to 100 nM
[4]
  IC50: 10 to 100 nM

## NC(=O)c1nn(-c2c(Cl)cccc2Cl)cc1Nc1ccc(C(=O)NCCF)cc1 [compound 421, 1-(2,6-dichlorophenyl)-4-((4-((2-fluoroethyl)carbamoyl)phenyl)amino)-1H-pyrazole-3-carboxamide]
[1]
  IC50: 100 to 1000 nM
[2]
  IC50: 100 to 1000 nM
[3]
  IC50: 10 to 100 nM
[4]
  IC50: 10 to 100 nM

## NC(=O)c1nn(-c2c(Cl)cccc2Cl)cc1Nc1ccc(C(=O)N2CC(O)C2)cc1 [compound 426, 1-(2,6-dichlorophenyl)-4-((4-(3-hydroxyazetidine-1-carbonyl)phenyl)amino)-1H-pyrazole-3-carboxamide]
[1]
  IC50: 100 to 1000 nM
[2]
  IC50: 100 to 1000 nM
[3]
  IC50: < 10 nM
[4]
  IC50: 10 to 100 nM

## Cc1cncc2nnc(-c3ccc(Nc4cn(-c5c(Cl)cccc5Cl)nc4C(N)=O)cn3)n12 [compound 436, 1-(2,6-dichlorophenyl)-4-((6-(5-methyl-[1,2,4]triazolo[4,3-a]pyrazin-3-yl)pyridin-3-yl)amino)-1H-pyrazole-3-carboxamide]
[1]
  IC50: 100 to 1000 nM
[2]
  IC50: 100 to 1000 nM
[3]
  IC50: 10 to 100 nM
[4]
  IC50: < 10 nM

## N#Cc1cccc(F)c1-n1cc(Nc2ccc(C(=O)N3CC[C@@H](F)C3)cc2)c(C(N)=O)n1 [compound 450, (R)-1-(2-cyano-6-fluorophenyl)-4-((4-(3-fluoropyrrolidine-1-carbonyl)phenyl)amino)-1H-pyrazole-3-carboxamide]
[1]
  IC50: 100 to 1000 nM
[2]
  IC50: 100 to 1000 nM
[3]
  IC50: < 10 nM
[4]
  IC50: 10 to 100 nM

## CC1(C)CN(C(=O)c2ccc(Nc3cn(-c4c(Cl)cccc4Cl)nc3C(N)=O)cc2)C1 [compound 456, 1-(2,6-dichlorophenyl)-4-((4-(3,3-dimethylazetidine-1-carbonyl)phenyl)amino)-1H-pyrazole-3-carboxamide]
[1]
  IC50: 100 to 1000 nM
[2]
  IC50: 100 to 1000 nM
[3]
  IC50: < 10 nM
[4]
  IC50: 10 to 100 nM

## CN=S1(=O)CCN(C(=O)c2ccc(Nc3cn(-c4c(Cl)cccc4Cl)nc3C(N)=O)cc2)CC1 [compound 466, 1-(2,6-dichlorophenyl)-4-((4-(1-(methylimino)-1-oxidothiomorpholine-4-carbonyl)phenyl)amino)-1H-pyrazole-3-carboxamide]
[1]
  IC50: 100 to 1000 nM
[2]
  IC50: 100 to 1000 nM
[3]
  IC50: < 10 nM
[4]
  IC50: 10 to 100 nM

## NC(=O)c1nn(-c2c(Cl)cccc2Cl)cc1Nc1ccc(-c2nnc3cncc(C(F)(F)F)n23)nc1 [compound 472, 1-(2,6-dichlorophenyl)-4-((6-(5-(trifluoromethyl)-[1,2,4]triazolo[4,3-a]pyrazin-3-yl)pyridin-3-yl)amino)-1H-pyrazole-3-carboxamide]
[1]
  IC50: 100 to 1000 nM
[2]
  IC50: 100 to 1000 nM
[3]
  IC50: 10 to 100 nM
[4]
  IC50: 10 to 100 nM
